How the values were obtained:
[1] = target: T1, Recombinant active human Cyclin E/CDK2 complexes (Homo sapiens, UniProt P24941); assay: CDK2 FlashPlate Assay (inhibition of Rb phosphorylation); format: biochemical; settings: Cyclin E/CDK2, Rb substrate, 33P-ATP, 25 minutes at room temperature; read-out: Inhibition of Cdk2 - IC50 Range
T1 construct: made in house; host or cells: insect cells
Experimental: To determine inhibition of CDK2 activity, purified recombinant retinoblastoma (Rb) protein was coated on 96 well FlashPlates (New England Nuclear, Boston, Mass.). Rb is a natural substrate for phosphorylation by CDK2 (Herwig and Strauss Eurr. J. Biochem., Vol. 246 (1997) pp. 581-601 and references therein). Recombinant active human Cyclin E/CDK2 complexes were partially purified from extracts of insect cells. The active Cyclin E/CDK2 was added to the Rb-coated FlashPlates along with ^33P-ATP and dilutions of test compounds. Plates were incubated for 25 minutes at room temperature with shaking, then washed and counted in the Topcount scintillation counter (Packard Instrument Co., Downers Grove, Ill.). Dilutions of test compounds were tested in duplicate in each assay. The percent inhibition of Rb phosphorylation, which is a measure of the inhibition of CDK2 activity, was determined according to the following formula: [formula] where “test compound” refers to the average counts per minute of the test duplicates, “nonspecific” refers to the average counts per minute when no Cyclin E/CDK2 was added, and “total” refers to the average counts per minute when no compound was added.

[2] = test system: colon adenocarcinoma line SW480; assay: SW480 cell-based antiproliferative (MTT) assay; settings: Homo sapiens, SW480, 144 h, 1000 cells per well, 6 days post addition of test compound, read-out: Antiproliferative Activity SW480 (colon) Assay - IC50 Range
Experimental: (§1) The estrogen receptor negative epithelial breast carcinoma line (MDA-MB-435) was purchased from American Type Cell Culture Collection (ATCC; Rockville, Md.) and was grown in the medium recommended by ATCC. For analysis of the effect of the test compounds on growth of these cells, the cells were plated at 2000 cells per well in a 96-well tissue culture plate, and were incubated overnight at 37° C. with 5% CO2. The next day, the test compounds were dissolved in 100% dimethyl sulfoxide (DMSO) to yield a 10 mM stock solution. Each compound was diluted with sterile medium to 1 mM in a sufficient quantity to yield a final concentration of 120 μM. The compounds were then serially diluted in medium with 1.2% DMSO. One-fourth final volume of the diluted compounds was transferred to 96 well plates. Test compounds were assayed in duplicate. DMSO was added to a row of “control cells” such that the final concentration of DMSO in each well was 0.3%. Wells to which no cells were added served as the “blank.” Wells to which no inhibitor was added served as “no inhibitor control”. The plates were returned to the incubator, and 5 days post addition of test compound, were analyzed as described below.
(§2) 3-(4,5-Dimethylthiazole-2-yl)-2,5-diphenyl-2H-tetrazolium bromide (thiazolyl blue; MTT) was added to each well to yield a final concentration of 1 mg/mL. The plates were then incubated at 37° C. for 3 hours. The plates were centrifuged at 1000 rpm for 5 minutes prior to aspiration of the MTT-containing medium. The MTT-containing medium was then removed and 100 μL 100% ethanol was added to each well to dissolve the resulting formazan metabolite. To ensure complete dissolution, plates were shaken for 15 minutes at room temperature. Absorbencies were read in a microtiter plate reader (Molecular Dynamics) at a wavelength of 570 nm with a 650 nm reference. Percent inhibition was calculated by subtracting the absorbance of the blank (no cell) wells from all wells, then subtracting the division of the average absorbance of each test duplicate by the average of the controls from 1.00. Inhibitory concentrations (IC50) were determined from the linear regression of a plot of the logarithm of the concentration versus the percent inhibition.
(§3) The colon adenocarcinoma line SW480 and the colon carcinoma line HCT-116 also were obtained from the ATCC and were tested according to the same protocol provided above for MDA-MB435 cell based assay with the following modifications. Cell line SW480 was plated at 1000 cells per well and analyzed at 6 days post addition of the test compound. Cell line HCT-116 was plated at 1000 cells per well and analyzed at 4 days post addition of test compound.

[3] = test system: colon carcinoma line HCT-116; assay: HCT-116 cell-based antiproliferative (MTT) assay; settings: Homo sapiens, HCT-116, 96 h, 1000 cells per well, 4 days post addition of test compound, read-out: Antiproliferative Activity HCT 116 (colon) Assay - IC50 Range
Experimental: as §1, §2, §3

[4] = test system: estrogen receptor negative epithelial breast carcinoma line (MDA-MB-435); assay: MDA-MB-435 cell-based antiproliferative (MTT) assay; settings: Homo sapiens, MDA-MB-435, 120 h, 2000 cells per well, 5 days post addition of test compound, read-out: Antiproliferative Activity of MDA-MB435 (breast) Assay - IC50 Range
Experimental: as §1, §2

melting point [°C] | IC50 [1] [µM] | IC50 [2] [µM] | IC50 [3] [µM] | IC50 [4] [µM] | Structure (SMILES)
196 to 198 |  |  |  |  | Cc1cnc2c(cc(NS(C)(=O)=O)c3nncc32)c(-c2ccccc2Cl)n1 [Compound C9, N-(3-methyl-5-(2-chlorophenyl)-pyrazolo[3,4][1,4]benzodiazepin-7-yl)-methanesulfonamide]
> 340 |  |  |  |  | NC(=O)c1cnc2c(cc([N+](=O)[O-])c3nncc32)c(-c2ccccc2Cl)n1 [Compound C10, 5-(2-chlorophenyl)-7-nitro-pyrazolo[3,4][1,4]benzodiazepine-3-carboxamide]
 | 1 to 9.99 | 10 to 30 | 10 to 30 | 10 to 30 | O=[N+]([O-])c1ccc2c(c1)C(c1ccccc1Cl)=Nc1c(n[nH]c1Cc1ccccc1)N2 [Compound B8, 3-(phenylmethyl)-5-(2-chlorophenyl)-7-nitro-pyrazolo[3,4][1,4]benzodiazepine]
323 to 324 |  |  |  |  | Cc1cnc2c(cc(C(N)=O)c3nncc32)c(-c2ccccc2F)n1 [Compound C19, 3-methyl-5-(2-fluorophenyl)-pyrazolo[3,4][1,4]benzodiazepine-7-carboxamide]
193 to 196 |  |  |  |  | N#Cc1cnc2c(cc([N+](=O)[O-])c3nncc32)c(-c2ccccc2Cl)n1 [Compound C18, 5-(2-chlorophenyl)-7-nitro-pyrazolo[3,4][1,4]benzodiazepine-3-carbonitrile]
 | 1 to 9.99 | 10 to 30 | 10 to 30 | 10 to 30 | Nc1ccc2c(c1)C(c1ccccc1Cl)=Nc1c[nH]nc1N2 [Compound C5, 5-(2-chlorophenyl)-7-amino-pyrazolo[3,4][1,4]benzodiazepine]
 | 0.01 to 0.99 | 1.1 to 9.99 | 1.1 to 9.99 |  | O=[N+]([O-])c1ccc2c(c1)C(c1ccccc1Cl)=Nc1c(n[nH]c1-c1ccc[nH]1)N2 [Compound B1, 3-(2-pyrrolyl)-5-(2-chlorophenyl)-7-nitro-pyrazolo[3,4][1,4]benzodiazepine]
> 300 |  |  |  |  | Clc1ccccc1-c1nccnc2c1cc(Cl)c1nncc12 [Compound A4, 5-(2-chlorophenyl)-7-chloro-pyrazolo[3,4][1,4]benzodiazepine]
 | 0.01 to 0.99 | 0.01 to 1 | 1.1 to 9.99 | 0.01 to 1 | Cc1[nH]nc2c1N=C(c1ccccc1F)c1cc(C#N)ccc1N2 [Compound B7, 3-methyl-5-(2-fluorophenyl)-pyrazolo[3,4][1,4]benzodiazepine-7-carbonitrile]
 | 1 to 9.99 | 10 to 30 | 10 to 30 |  | Cc1ccccc1-c1[nH]nc2c1N=C(c1ccccc1Cl)c1cc([N+](=O)[O-])ccc1N2 [Compound D37]
 | 0.01 to 0.99 | 1.1 to 9.99 | 1.1 to 9.99 | 1.1 to 9.99 | CCOC(=O)c1ccc2c(c1)C(c1ccccc1F)=Nc1c(n[nH]c1C)N2 [Compound B9, 3-methyl-5-(2-fluorophenyl)-7-carboethoxy-pyrazolo[3,4][1,4]benzodiazepine]
 | 0.01 to 0.99 | 0.01 to 1 | 0.01 to 1 | 0.01 to 1 | CCc1[nH]nc2c1N=C(c1ccccc1Cl)c1cc([N+](=O)[O-])ccc1N2 [Compound B4, 3-ethyl-5-(2-chlorophenyl)-7-nitro-pyrazolo[3,4][1,4]benzodiazepine]
 | 0.01 to 0.99 | 10 to 30 | 10 to 30 |  | O=[N+]([O-])c1ccc2c(c1)C(c1ccccc1Cl)=Nc1c(n[nH]c1-c1ccco1)N2 [Compound D7]
 | 0.01 to 0.99 | 1.1 to 9.99 | 1.1 to 9.99 | 0.01 to 1 | O=[N+]([O-])c1ccc2c(c1)C(c1ccccc1Cl)=Nc1c(n[nH]c1C1CC1)N2 [Compound B25, 3-cyclopropyl-5-(2-chlorophenyl)-7-nitro-pyrazolo[3,4][1,4]benzodiazepine]
 | 0.01 to 0.99 | 0.01 to 1 | 1.1 to 9.99 | 0.01 to 1 | CC(C)c1[nH]nc2c1N=C(c1ccccc1Cl)c1cc([N+](=O)[O-])ccc1N2 [Compound B6]
 | 0.01 to 0.99 | 1.1 to 9.99 | 10 to 30 | 10 to 30 | O=[N+]([O-])c1ccc2c(c1)C(c1ccccc1F)=Nc1c[nH]nc1N2 [Compound A13, 5-(2-fluorophenyl)-7-nitro-pyrazolo[3,4][1,4]benzodiazepine]
 | 0.01 to 0.99 | 10 to 30 | 10 to 30 | 10 to 30 | CCCc1[nH]nc2c1N=C(c1ccccc1Cl)c1cc([N+](=O)[O-])ccc1N2 [Compound B24, 3-propyl-5-(2-chlorophenyl)-7-nitro-pyrazolo[3,4][1,4]benzodiazepine]
 | 1 to 9.99 | 10 to 30 | 10 to 30 | 10 to 30 | O=[N+]([O-])c1ccc2c(c1)C(c1ccccc1Cl)=Nc1c(n[nH]c1CCc1ccccc1)N2 [Compound B5, 3-(2-phenylethyl)-5-(2-chlorophenyl)-7-nitro-pyrazolo[3,4][1,4]benzodiazepine]
260 to 263 |  |  |  |  | Cc1cnc2c(cc(N)c3nncc32)c(-c2ccccc2Cl)n1 [Compound C4, 3-methyl-5-(2-chlorophenyl)-7-amino-pyrazolo[3,4][1,4]benzodiazepine]
 | 0.01 to 0.99 | 10 to 30 | 10 to 30 |  | O=[N+]([O-])c1ccc2c(c1)C(c1ccccc1Cl)=Nc1c(n[nH]c1-c1cccs1)N2 [Compound D6]
 | 0.01 to 0.99 | 0.01 to 1 | 0.01 to 1 | 0.01 to 1 | Cc1[nH]nc2c1N=C(c1ccccc1Cl)c1cc([N+](=O)[O-])ccc1N2 [Compound B3, 3-methyl-5-(2-chlorophenyl)-7-nitro-pyrazolo[3,4][1,4]benzodiazepine]
 | 0.01 to 0.99 | 1.1 to 9.99 | 10 to 30 | 10 to 30 | O=[N+]([O-])c1ccc2c(c1)C(c1ccccc1Cl)=Nc1c[nH]nc1N2 [Compound A5, 5-(2-chlorophenyl)-7-nitro-pyrazolo[3,4][1,4]benzodiazepine]

— patent US6916923B2 (Hoffmann-La Roche Inc., priority 1999, dated 2005)
